According to patent US20080280303A1, “G-PROTEIN COUPLED RECEPTORS HIGH-[…]” (priority 2003, published 2008):

How the values were obtained:
Type in all cases: cell-based
EPAC = target: T1, EPAC (Homo sapiens, UniProt O95398); test: R-SAT proliferation, EPAC co-expressed with ras/rapAA, with or without 8-Br cAMP; conditions: 250 uM 8-Br cAMP; ras/rapAA 20 ng per well
T1 construct: expressed in transfected cells; host or cells: NIH 3T3
T1 sequence (O95398 1-923): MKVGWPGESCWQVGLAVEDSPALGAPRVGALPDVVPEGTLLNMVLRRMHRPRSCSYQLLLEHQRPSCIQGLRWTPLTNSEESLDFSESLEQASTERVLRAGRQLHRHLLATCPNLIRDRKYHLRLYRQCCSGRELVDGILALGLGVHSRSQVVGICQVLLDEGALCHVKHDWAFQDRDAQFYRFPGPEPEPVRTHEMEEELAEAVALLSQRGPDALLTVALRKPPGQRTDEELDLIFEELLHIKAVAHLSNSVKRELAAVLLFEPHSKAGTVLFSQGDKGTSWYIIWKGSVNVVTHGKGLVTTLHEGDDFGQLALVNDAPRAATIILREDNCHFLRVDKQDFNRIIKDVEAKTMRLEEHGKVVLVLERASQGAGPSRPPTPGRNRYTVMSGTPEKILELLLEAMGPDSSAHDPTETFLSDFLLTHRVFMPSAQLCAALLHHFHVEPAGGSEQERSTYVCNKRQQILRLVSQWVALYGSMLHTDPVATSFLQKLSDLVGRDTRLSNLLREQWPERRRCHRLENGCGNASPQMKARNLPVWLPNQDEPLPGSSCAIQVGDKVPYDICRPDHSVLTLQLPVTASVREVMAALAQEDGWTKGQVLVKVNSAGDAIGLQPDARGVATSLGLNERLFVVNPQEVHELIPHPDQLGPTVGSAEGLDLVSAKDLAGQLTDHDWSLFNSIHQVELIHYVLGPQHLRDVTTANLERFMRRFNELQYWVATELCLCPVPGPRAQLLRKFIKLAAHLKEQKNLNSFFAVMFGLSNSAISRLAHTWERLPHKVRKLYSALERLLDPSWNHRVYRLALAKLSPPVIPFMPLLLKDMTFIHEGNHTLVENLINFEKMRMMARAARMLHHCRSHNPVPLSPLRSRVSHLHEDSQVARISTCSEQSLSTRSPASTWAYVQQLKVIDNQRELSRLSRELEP
Method: FIG. 2. Characterization of regulation and signaling properties of ras/rap chimeras. A) Proliferative responses of ras, rap, and ras/rap measured in R-SAT. 4 ng/well each of wild-type or GTPase deficient (V 12) mutants of ras, rap1A, or ras/rap1A (24) were transfected and analyzed for proliferative responses as described in Methods. B & C) Rap-selective exchange factors activate cellular proliferation in a ras/rap chimera dependent manner. B) Synergy of EPAC with ras/rap chimeras. Two ng per well of the rap selective exchange factor EPAC was co-expressed with 20 ng per well of either rap1B, ras/rap1A, ras/rap1B, ras/rapAA, or control vector and analyzed for proliferative responses as described above. C) Synergy of C3G with ras/rap chimeras. Twenty ng per well of the rap selective exchange factor C3G (68) was co-expressed with 20 ng per well of either rap1B, ras/rap1A, ras/rap1B, ras/rapAA, or control vector and analyzed for proliferative responses as described above. D) The indicated doses (ng per well) of EPAC were co-expressed with 20 ng per well of ras/rapAA in the presence or absence of 250 uM 8-Br cAMP and analyzed for proliferative responses as described above. […] Either 10 ng per well of control vector, ras or ras/rapAA was co-expressed with EPAC (2 ng per well), C3G (10 ng per well), or Sos2 (10 ng per well) and analyzed for proliferative responses. […]

GPR6 = target: T2, GPR6 (Homo sapiens, UniProt P46095); test: R-SAT constitutive proliferation, orphan receptor with ras/rapAA and ACII, with or without pertussis toxin; conditions: PTX, 100 ng/ml
T2 construct: expressed in transfected cells
T2 sequence (P46095 whole entry, species assumed): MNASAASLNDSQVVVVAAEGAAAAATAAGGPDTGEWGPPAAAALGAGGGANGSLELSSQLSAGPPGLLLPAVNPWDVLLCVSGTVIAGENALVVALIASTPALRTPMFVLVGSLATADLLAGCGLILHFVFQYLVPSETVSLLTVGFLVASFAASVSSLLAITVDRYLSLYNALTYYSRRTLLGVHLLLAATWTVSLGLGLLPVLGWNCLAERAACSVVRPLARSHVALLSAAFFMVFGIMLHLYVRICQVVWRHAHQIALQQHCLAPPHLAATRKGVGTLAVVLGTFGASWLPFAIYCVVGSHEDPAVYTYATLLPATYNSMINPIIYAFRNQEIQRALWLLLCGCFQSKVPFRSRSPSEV
Method: (§1) FIG. 7. Functional validation and characterization of orphan GPCRs using helper genes. A) The indicated receptors were expressed at two doses either alone, with ras/rapAA (20 ng/well) and ACII (2 ng/well), or Gαq (4 ng/well) and analyzed for constitutive stimulation of cellular proliferation as described above. Control represents the transfection of the same helper genes with vector substituting for receptor. The transfections were all balanced with vector to ensure the same total amount of DNA was transfected in each case. PI hydrolysis assays were carried out using tsa cells transfected with 20 ng/well of each receptor as described in Methods. B) The indicated receptors were expressed at two doses either alone, with ras/rapAA (20 ng/well) and ACII (2 ng/well), or Gαq (4 ng/well) and analyzed for constitutive stimulation of cellular proliferation as described above. Control represents the transfection of the same helper genes with vector substituting for receptor. The transfections were all balanced with vector to ensure the same total amount of DNA was transfected in each case. Cyclic AMP accumulation assays were carried out using HEK293 cells transfected with 20 ng/well of each receptor as described in Methods. C) The indicated receptors were expressed at with ras/rapAA (20 ng/well) and ACII (2 ng/well), incubated in the presence or absence of pertussis toxin (PTX, 100 ng/ml) and analyzed for constitutive stimulation of cellular proliferation as described above. Control represents the transfection of the same helper genes with vector substituting for receptor. D) The indicated receptors were tested for stimulation of cyclic AMP production as described in the experimental methods.
(§2) Functional assays. […] After five days in culture β-galactosidase levels were measured essentially as described (35). […] After 3 hr the plates were read at 420 nm on a plate-reader (Bio-Tek EL 310 or Molecular Devices). […]

GPR3 = target: T3, GPR3 (Homo sapiens, UniProt P46089); test: as above; conditions: PTX, 100 ng/ml
T3 construct: expressed in transfected cells
T3 sequence (P46089 whole entry, species assumed): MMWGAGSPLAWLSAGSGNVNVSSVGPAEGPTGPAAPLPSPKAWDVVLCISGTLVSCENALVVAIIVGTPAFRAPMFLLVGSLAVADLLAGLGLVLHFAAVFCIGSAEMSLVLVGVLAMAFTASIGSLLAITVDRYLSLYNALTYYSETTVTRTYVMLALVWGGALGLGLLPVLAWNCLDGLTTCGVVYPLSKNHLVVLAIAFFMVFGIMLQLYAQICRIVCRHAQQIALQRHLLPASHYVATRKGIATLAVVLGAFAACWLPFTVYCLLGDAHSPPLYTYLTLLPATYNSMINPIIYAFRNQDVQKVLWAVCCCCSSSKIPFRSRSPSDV
Method: as §1, §2

GPR12 = target: T4, GPR12 (Homo sapiens, UniProt P47775); test: as above; conditions: PTX, 100 ng/ml
T4 construct: expressed in transfected cells
T4 sequence (P47775 1-334): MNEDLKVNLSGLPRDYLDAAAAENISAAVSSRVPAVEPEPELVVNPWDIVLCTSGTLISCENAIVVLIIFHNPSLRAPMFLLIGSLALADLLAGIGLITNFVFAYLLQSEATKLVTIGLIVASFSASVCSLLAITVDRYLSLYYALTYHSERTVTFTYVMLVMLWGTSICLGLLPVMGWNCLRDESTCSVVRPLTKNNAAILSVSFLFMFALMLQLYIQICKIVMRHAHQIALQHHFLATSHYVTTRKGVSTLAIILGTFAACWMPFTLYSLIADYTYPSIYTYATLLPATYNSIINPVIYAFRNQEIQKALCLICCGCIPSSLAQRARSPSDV
Method: as §1, §2

D1 dopamine receptor = target: T5, D1 dopamine receptor (Homo sapiens, UniProt P21728); test: R-SAT cellular proliferation, D1 co-expressed with ras/rapAA, with or without pertussis toxin; conditions: 100 ug/ml pertussis toxin; agonist SKF81297; NIH 3T3 cells
T5 construct: expressed in transfected cells; host or cells: NIH 3T3
T5 sequence (P21728 whole entry): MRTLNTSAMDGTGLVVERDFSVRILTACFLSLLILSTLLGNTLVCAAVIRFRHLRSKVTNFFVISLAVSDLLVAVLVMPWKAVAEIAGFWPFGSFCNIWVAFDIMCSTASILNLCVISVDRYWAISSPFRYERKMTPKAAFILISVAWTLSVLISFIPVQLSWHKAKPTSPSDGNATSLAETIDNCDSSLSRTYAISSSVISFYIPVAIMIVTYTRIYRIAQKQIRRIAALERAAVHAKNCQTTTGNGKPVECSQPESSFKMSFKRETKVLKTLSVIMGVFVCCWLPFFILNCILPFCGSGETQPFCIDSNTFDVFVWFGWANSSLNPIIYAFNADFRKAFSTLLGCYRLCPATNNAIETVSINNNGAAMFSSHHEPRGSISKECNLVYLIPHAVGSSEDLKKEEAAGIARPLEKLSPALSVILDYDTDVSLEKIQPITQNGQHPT
Method: (§3) FIG. 4. Pertussis toxin sensitivity of ras/rap dependent proliferative responses to Gs-coupled and Gi-coupled GPCRs. A) D1 (4 ng per well) and ras/rapAA (20 ng per well) were co-expressed and analyzed for proliferative responses in the presence or absence of 100 ug/ml pertussis toxin in the presence of the indicated concentrations of SKF81297. B) 5HT1E (20 ng per well) and ras/rapAA (20 ng per well) were co-expressed and analyzed for proliferative responses in the presence or absence of 100 ug/ml pertussis toxin in the presence of the indicated concentrations of BRL54443. C) D2 (4 ng/well), alpha2C (20 ng/well), and SST5 (4 ng/well) were each expressed with ras/rapAA (20 ng/well), incubated with the indicated concentrations of ligand and either with or without 100 ng/ml pertussis toxin (PTX) and analyzed for proliferative responses as described above. Control represents the receptors expressed alone.
as §2

5HT1E serotonin receptor = target: T6, 5HT1E serotonin receptor (Homo sapiens, UniProt P28566); test: R-SAT cellular proliferation, 5HT1E co-expressed with ras/rapAA, with or without pertussis toxin; conditions: 100 ug/ml pertussis toxin; agonist BRL54443; NIH 3T3 cells
T6 construct: expressed in transfected cells; host or cells: NIH 3T3
T6 sequence (P28566 whole entry): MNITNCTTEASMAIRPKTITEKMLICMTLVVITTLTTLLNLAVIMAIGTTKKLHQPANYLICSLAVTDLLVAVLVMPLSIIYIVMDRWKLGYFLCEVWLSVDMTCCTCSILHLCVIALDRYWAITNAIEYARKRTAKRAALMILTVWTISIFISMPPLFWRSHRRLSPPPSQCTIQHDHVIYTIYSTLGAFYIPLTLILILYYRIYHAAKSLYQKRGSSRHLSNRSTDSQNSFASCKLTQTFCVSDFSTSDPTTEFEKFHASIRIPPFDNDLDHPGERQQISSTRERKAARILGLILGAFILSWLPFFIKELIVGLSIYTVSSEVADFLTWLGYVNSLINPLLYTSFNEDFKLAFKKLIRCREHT
Method: as §3, §2

| Compound | stimulation of EPAC to induce ras/rap-dependent responses (EPAC) | effect on helper gene dependent constitutive response to GPR6 (GPR6) | effect on helper gene dependent constitutive response to GPR3 (GPR3) | effect on helper gene dependent constitutive response to GPR12 (GPR12) | effect on ras/rap dependent responses to D1 (D1 dopamine receptor) | effect on ras/rap dependent responses to 5HT1E (5HT1E serotonin receptor) |
| --- | --- | --- | --- | --- | --- | --- |
| Nc1ncnc2c1nc(Br)n2[C@@H]1O[C@@H]2COP(=O)(O)O[C@H]2[C@H]1O [8-Br cAMP] | stimulated |  |  |  |  |  |
| pertussis toxin |  | significantly blunted | hardly affected | hardly affected | did not block, and slightly increased | completely blocked |
